Assay results published in patent publication US11590116B2 (THERAVANCE BIOPHARMA R&D IP, LLC, priority 2019, dated 2023).

Key:
[1] = biological target: T1, recombinant human ALK5 (TGF-βR1) protein (Homo sapiens, UniProt P36897); test: Biochemical ALK5 (TGF-βR1) assay to measure pKi (LANCE Ultra ULight kinase assay); conditions: apparent pKi from pIC50 by Cheng-Prusoff, read-out: ALK5 pKi (converted)
T1 construct: purchased Life Technologies PR9075A
T1 sequence (P36897 34-503): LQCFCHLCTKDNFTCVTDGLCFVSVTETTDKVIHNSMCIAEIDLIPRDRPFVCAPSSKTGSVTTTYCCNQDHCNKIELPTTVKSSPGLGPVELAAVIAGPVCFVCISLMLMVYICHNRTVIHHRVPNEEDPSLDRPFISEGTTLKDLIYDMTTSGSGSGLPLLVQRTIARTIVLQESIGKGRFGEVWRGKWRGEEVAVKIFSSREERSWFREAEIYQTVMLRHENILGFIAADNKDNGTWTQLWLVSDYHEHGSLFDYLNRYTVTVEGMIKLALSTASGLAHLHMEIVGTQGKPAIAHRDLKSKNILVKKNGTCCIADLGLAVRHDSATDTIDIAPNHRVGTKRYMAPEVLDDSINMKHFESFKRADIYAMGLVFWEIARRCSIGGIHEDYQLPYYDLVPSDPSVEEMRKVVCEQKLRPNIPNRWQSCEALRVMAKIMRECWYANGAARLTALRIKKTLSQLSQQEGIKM
Method in brief: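 Compounds (10 μM to 25 pM) were preincubated 60 min at room temperature with enzyme, then reactions were started with ATP (125 μM stock, 5× final) and run 60 min at 37 °C. EDTA-containing Eu-anti-phospho-Topo IIα (Thr1342) antibody stopped the reaction; TR-FRET read at 665 nm. pIC50 from 4-parameter fit, converted to pKi via Cheng-Prusoff.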

[2] = tested on: TGF-β-stimulated SMAD3 phosphorylation in BEAS-2B cells; test: Cellular ALK5 potency assay, inhibition of TGF-β stimulated pSMAD3 formation in BEAS-2B cells; type: cell-based; conditions: Homo sapiens; inhibition of TGF-β stimulated pSMAD3 formation, BEAS-2B cells; read-out: BEAS2B pIC50 (converted)
Method in brief: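 SMAD3 phosphorylation was measured by AlphaLISA after 30 min TGF-β stimulation (10 ng/mL final) of BEAS-2B cells preincubated 1 h with compound at 37 °C. Results given as pIC50.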

SMILES	Ki [1] [nM]	IC50 [2] [nM]
COC(=O)[C@@H]1CCCN(CCNc2cnc3ccc(-c4nc[nH]c4-c4cccc(C)n4)cc3c2)C1 [Compound 728, methyl (3R)-1-[2-[[6-[5-(6-methyl-2-pyridyl)-1H-imidazol-4-yl]-3-quinolyl]amino]ethyl]piperidine-3-carboxylate]	0.0398 to 0.316	25.1 to 158
Cc1cccc(-c2[nH]cnc2-c2ccc3ncc(N4CCC5(CC4)CNC5)cc3c2)n1 [Compound 206, 3-(2,7-diazaspiro [3.5]nonan-7-yl)-6-[5-(6-methyl-2-pyridyl)-1H-imidazol-4-yl]quinoline]	0.0398 to 0.316	25.1 to 158
Cc1cccc(-c2[nH]cnc2-c2ccc3ncc(-c4ccc(C(=O)OC[C@H]5CCCN5)cn4)cc3c2)n1 [Compound 1170, [(2R)-pyrrolidin-2-yl]methyl 6-[6-[5-(6-methyl-2-pyridyl)-1H-imidazol-4-yl]-3-quinolyl]pyridine-3-carboxylate]	0.0398 to 0.316	25.1 to 158
Cc1cccc(-c2[nH]cnc2-c2ccc3ncc(N4CCC(NC(=O)C5CCNCC5)CC4)cc3c2)n1 [Compound 583, N-[1-[6-[5-(6-methyl-2-pyridyl)-1H-imidazol-4-yl]-3-quinolyl]-4-piperidyl]piperidine-4-carboxamide]	0.0398 to 0.316	1580 to 10000
CNCCn1ccc(-c2cnc3ccc(-c4nc[nH]c4-c4cccc(C)n4)cc3c2)n1 [Compound 494, N-methyl-2-[3-[6-[5-(6-methyl-2-pyridyl)-1H-imidazol-4-yl]-3-quinolyl]pyrazol-1-yl]ethanamine]	0.0398 to 0.316	25.1 to 158
CN[C@H]1CC[C@H](OC(=O)c2cnc3ccc(-c4nc[nH]c4-c4cccc(C)n4)cc3c2)CC1 [Compound 1129, [4-(methylamino)cyclohexyl] 6-[5-(6-methyl-2-pyridyl)-1H-imidazol-4-yl]quinoline-3-carboxylate]	0.0398 to 0.316	25.1 to 158
Cc1cccc(-c2[nH]cnc2-c2ccc3ncc(C4=CCC5(CCNCC5)CC4)cc3c2)n1 [Compound 392, 9-(6-(5-(6-methylpyridin-2-yl)-1H-imidazol-4-yl)quinolin-3-yl)-3-azaspiro[5.5]undec-8-ene]	0.0398 to 0.316	25.1 to 158
Cc1cccc(-c2[nH]cnc2-c2ccc3ncc(N4CCNC(CC(=O)OCC5CNC5)C4)cc3c2)n1 (stereo not drawn) [Compound 491, azetidin-3-ylmethyl 2-[4-[6-[5-(6-methyl-2-pyridyl)-1H-imidazol-4-yl]-3-quinolyl]piperazin-2-yl]acetate]	0.0398 to 0.316	200 to 1260
Cc1cccc(-c2[nH]ncc2-c2ccc3nccc(C(=O)O[C@H]4CC[C@@H](N)CC4)c3c2)n1 [Compound 1199, (4-aminocyclohexyl) 6-[5-(6-methyl-2-pyridyl)-1H-pyrazol-4-yl]quinoline-4-carboxylate]	3.98 to 31.6	200 to 1260
Cc1cccc(-c2[nH]cnc2-c2ccc3ncc(NCCN4CCCC4)cc3c2)n1 [Compound 30, 6-[5-(6-methyl-2-pyridyl)-1H-imidazol-4-yl]-N-(2-pyrrolidin-1-ylethyl)quinolin-3-amine]	0.0398 to 0.316	25.1 to 158
Cc1cccc(-c2[nH]cnc2-c2ccc3ncc(C(=O)OCCCCN4CCCC4)cc3c2)n1 [Compound 714, 4-pyrrolidin-1-ylbutyl 6-[5-(6-methyl-2-pyridyl)-1H-imidazol-4-yl]quinoline-3-carboxylate]	0.0398 to 0.316	25.1 to 158
Cc1cccc(-c2[nH]cnc2-c2ccc3ncc(-c4ccc5c(c4)CCC5N)cc3c2)n1 (stereo not drawn) [Compound 275, 5-[6-[5-(6-methyl-2-pyridyl)-1H-imidazol-4-yl]-3-quinolyl]indan-1-amine]	0.0398 to 0.316	25.1 to 158
Cc1cccc(-c2[nH]cnc2-c2ccc3ncc(-c4nc(C5=CCNCC5)cs4)cc3c2)n1 [Compound 1051, 2-(6-(5-(6-methylpyridin-2-yl)-1H-imidazol-4-yl)quinolin-3-yl)-4-(1,2,3,6-tetrahydropyridin-4-yl)thiazole]	0.0398 to 0.316	< 20
Cc1cccc(-c2[nH]cnc2-c2ccc3ncc(-c4cccc(C(=O)O[C@@H]5CCN(C)C5)c4)cc3c2)n1 [Compound 608, [(3R)-1-methylpyrrolidin-3-yl] 3-[6-[5-(6-methyl-2-pyridyl)-1H-imidazol-4-yl]-3-quinolyl]benzoate]	0.0398 to 0.316	25.1 to 158

Now from value to molecule, other results behind:

Ki [1] [nM]	SMILES	IC50 [2] [nM]
< 0.0316	Cc1cccc(-c2n[nH]cc2-c2ccc3ncc(N4CC(N5CCOCC5)C4)cc3n2)n1 [Compound 156, 4-[1-[6-[3-(6-methyl-2-pyridyl)-1H-pyrazol-4-yl]-1,5-naphthyridin-3-yl]azetidin-3-yl]morpholine]	< 20
0.398 to 3.16	Cc1cccc(-c2n[nH]cc2-c2ccc3nccc(CN4CC(N5CCOCC5)C4)c3n2)n1 [Compound 850, 4-[1-[[6-[3-(6-methyl-2-pyridyl)-1H-pyrazol-4-yl]-1,5-naphthyridin-4-yl]methyl]azetidin-3-yl]morpholine]	200 to 1260
0.0398 to 0.316	Cc1cccc(-c2n[nH]cc2-c2ccc3nccc(-c4nc(CO)co4)c3n2)n1 [Compound 852, [2-[6-[3-(6-methyl-2-pyridyl)-1H-pyrazol-4-yl]-1,5-naphthyridin-4-yl]oxazol-4-yl]methanol]	25.1 to 158
< 0.0316	Cc1cccc(-c2n[nH]cc2-c2ccc3ncc(NCCN4CCCC4(C)C)cc3n2)n1 [Compound 31, N-[2-(2,2-dimethylpyrrolidin-1-yl)ethyl]-6-[3-(6-methyl-2-pyridyl)-1H-pyrazol-4-yl]-1,5-naphthyridin-3-amine]	25.1 to 158
0.0398 to 0.316	Cc1cccc(-c2n[nH]cc2-c2ccc3ncc(N4CCC[C@@H]4CO)cc3n2)n1 [Compound 270, [(2R)-1-[6-[3-(6-methyl-2-pyridyl)-1H-pyrazol-4-yl]-1,5-naphthyridin-3-yl]pyrrolidin-2-yl]methanol]	25.1 to 158
0.398 to 3.16	Cc1cccc(-c2n[nH]cc2-c2ccc3ncc(-n4cc(-c5ccccc5)nn4)cc3n2)n1 [Compound 133, 2-[3-(6-methyl-2-pyridyl)-1H-pyrazol-4-yl]-7-(4-phenyltriazol-1-yl)-1,5-naphthyridine]	25.1 to 158
< 0.0316	Cc1cccc(-c2[nH]cnc2-c2ccc3ncc(N4CC5(CNC5)C4)cc3c2)n1 [Compound 131, 3-(2,6-diazaspiro[3.3]heptan-2-yl)-6-[5-(6-methyl-2-pyridyl)-1H-imidazol-4-yl]quinoline]	25.1 to 158
0.0398 to 0.316	Cc1cccc(-c2n[nH]cc2-c2ccc3ncc(N4CC5CN(C)CC54)cc3n2)n1 (stereo not drawn) [Compound 304, 7-(3-methyl-3,6-diazabicyclo[3.2.0]heptan-6-yl)-2-[3-(6-methyl-2-pyridyl)-1H-pyrazol-4-yl]-1,5-naphthyridine]	25.1 to 158
< 0.0316	Cc1cccc(-c2[nH]nnc2-c2ccc3ncc(-c4cnn(C5CCCNC5)c4)cc3n2)n1 (stereo not drawn) [Compound 602, 2-[5-(6-methyl-2-pyridyl)-1H-triazol-4-yl]-7-[1-(3-piperidyl)pyrazol-4-yl]-1,5-naphthyridine]	200 to 1260
0.0398 to 0.316	Cc1cccc(-c2n[nH]cc2-c2ccc3ncc(NCCN4CCOCC4)cc3n2)n1 [Compound 239, 6-[3-(6-methyl-2-pyridyl)-1H-pyrazol-4-yl]-N-(2-morpholinoethyl)-1,5-naphthyridin-3-amine]	25.1 to 158
